Assay results reported in patent US20230232837A1, “NOVEL FORMULATIONS FOR INCREASING THE GERMINATION RATE OF FUNGAL SPORES” (priority 2020, published 2023).

Key:
[1] = system: Trichoderma atroviride strain T1; test: Germination rate after air-drying with protectants, strain T1; type: cell-based; details: after air-drying at room temperature overnight; material:spore 1:1, lecithin 1:10
Method: (§1) The spores of Trichoderma strains T1 and B35 were prepared by Solid State Fermentation (SSF) and harvested, then centrifuged to form a spore paste. T1 is used here as an abbreviation for Trichoderma atroviride strain T1 with a culture collection No. I123-7 (French collection), while B35 is used here as an abbreviation for Trichoderma asperellum strain B35, deposited in the German Culture collection under the No. DSM33245.
(§2) For the air-drying experiments (explained further below), in order to get a protectant-to-spore mass ratio of 1:1 (except for lecithin), 12 g of the spore paste was mixed with 3 g of the protectant in order to get a total of 15 g. The spore concentration in the paste is about 25%, which makes then 3 g of spore in contact with 3 g of protectant. The mixture of protectants and paste were mixed for 5 min and 3400 rpm using an Ultra-Turrax equipment (IKA T25). In case of the test for lecithin, 1.5 g of a 20% lecithin solution was added to 13.5 g of spore paste, then mixed according to the afore-mentioned procedure (5 min, 3400 rpm). After mixing, the mixture was poured into a tray and dried at room temperature overnight.
(§3) Germination rates were measured according to the following protocol: The sample with the spores is dispersed in sterile tap water to get a homogenous spore solution. Depending on the initial spore concentration, the sample may need to be diluted up to 1E+07 spores/mL. This dilution then is spread on agar plates (often, 100 μl of dilution spread on a Potato Dextrose Agar plate) with a sterile Drigalski spatula. Depending on the strain type, the plates are incubated at a certain temperature (for example 20° C. for Trichoderma used here) for some time (here 19-24 hours is used) to allow time for germination and forming hyphae. Subsequently, the spores on the plates are analyzed under the microscope in 8 to 10 randomly chosen areas. At least 200 germinated and non-germinated spores are counted. The viability (%) is calculated by 100 times the number of germinated spores to the total spores counted.
(§4) A test was conducted to compare lecithin against other known microbial stabilizers and protectant materials. These materials include different sugars, proteins, skim milk powder, and others. Initially, an air-drying technique in room temperature was used.
(§5) After the spores were air dried with different protectants at room temperature overnight, the germination rate and total dry matter content (DMC, which is a way of expressing total moisture content) of the samples were analyzed.

[2] = system: Trichoderma asperellum strain B35; test: Germination rate after air-drying with protectants, strain B35; type: cell-based; details: after air-drying at room temperature overnight; material:spore 1:1, lecithin 1:10
Method: as §1, §2, §3, §4, §5

[3] = Dry matter content / residual moisture by heating balance; type: physicochemical; details: dry matter content after air-drying; for DMC (%) B35: strain B35; for DMC (%) T1: strain T1
Method: For all experiments conducted, dry matter content (as related to total moisture content) was measured by a heating balance apparatus (Sartorius MA 160).
as §5

## OC[C@@H](O)[C@H](O)[C@H](O)[C@@H](O)CO [Ducitol/Galactitol]
[1]
  Germination rate (%) T1: not soluble
[2]
  Germination rate (%) B35: not soluble

## OC[C@@H](O)[C@@H](O)[C@H](O)[C@H](O)CO [Mannitol]
[1]
  Germination rate (%) T1: 69.95%
[2]
  Germination rate (%) B35: 51.40%
[3]
  DMC (%) B35: 94.88%
  DMC (%) T1: 97.01%

## O[C@H]1[C@H](O)[C@@H](O)[C@H](O)[C@@H](O)[C@H]1O [Myo-Inositol]
[1]
  Germination rate (%) T1: 65.03%
[2]
  Germination rate (%) B35: 59.05%
[3]
  DMC (%) B35: 95.59%
  DMC (%) T1: 96.6%

## OC[C@@H](O)[C@@H](O)[C@H](O)[C@@H](O)CO [Sorbitol/Glucitol]
[2]
  Germination rate (%) B35: 13.00%
[3]
  DMC (%) B35: 93.99%

## OC[C@H]1O[C@@](CO)(O[C@H]2O[C@H](CO)[C@@H](O)[C@H](O)[C@H]2O)[C@@H](O)[C@@H]1O [Sucrose]
[2]
  Germination rate (%) B35: 36.45%
[3]
  DMC (%) B35: 91.59%

## OC[C@H]1O[C@H](O[C@H]2O[C@H](CO)[C@@H](O)[C@H](O)[C@H]2O)[C@H](O)[C@@H](O)[C@@H]1O [Trehalose]
[1]
  Germination rate (%) T1: 68.75%
[2]
  Germination rate (%) B35: 43.18%
[3]
  DMC (%) B35: 91.84%
  DMC (%) T1: 90.35%

## Chitosan
[1]
  Germination rate (%) T1: not soluble
[2]
  Germination rate (%) B35: not soluble

## Maltodextrin
[1]
  Germination rate (%) T1: 54.55%
[2]
  Germination rate (%) B35: 20.38%
[3]
  DMC (%) B35: 92.49%
  DMC (%) T1: 94.46%
